Assay results: PMC10059848, “Inhibition Kinetics and Theoretical Studies on Zanthoxylum chalybeum Engl. Dual Inhibitors of α-Glucosidase and α-Amylase” (Journal of Xenobiotics, 2023)

Experiments:
yeast α-glucosidase = yeast α-glucosidase (Saccharomyces cerevisiae, UniProt P53341); assay: Inhibition kinetics of α-glucosidase (Lineweaver–Burk and Dixon plots); assay type: biochemical; conditions: for Inhibition Mode, α-Glucosidase: Lineweaver–Burk plots
[1] = molecular target: T1, porcine pancreas α-amylase (Sus scrofa, UniProt P00690); assay: Inhibition kinetics of α-amylase (Lineweaver–Burk and Dixon plots); conditions: for Inhibition Mode, α-Amylase: Lineweaver–Burk plots
T1 sequence (P00690 16-511): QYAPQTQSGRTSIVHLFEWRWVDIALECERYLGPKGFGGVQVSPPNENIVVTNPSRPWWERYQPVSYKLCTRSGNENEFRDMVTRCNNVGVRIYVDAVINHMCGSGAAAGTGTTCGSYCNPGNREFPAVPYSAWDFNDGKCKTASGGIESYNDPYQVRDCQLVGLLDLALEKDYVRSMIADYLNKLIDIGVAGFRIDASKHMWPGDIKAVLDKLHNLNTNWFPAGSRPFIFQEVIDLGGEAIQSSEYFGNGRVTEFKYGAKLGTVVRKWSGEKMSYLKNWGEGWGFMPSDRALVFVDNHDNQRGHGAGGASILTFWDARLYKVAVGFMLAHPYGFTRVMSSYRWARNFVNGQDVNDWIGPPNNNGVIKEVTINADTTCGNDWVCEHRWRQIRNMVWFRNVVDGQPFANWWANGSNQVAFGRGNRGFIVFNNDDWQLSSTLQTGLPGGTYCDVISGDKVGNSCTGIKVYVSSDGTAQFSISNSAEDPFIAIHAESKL
Text: Using Lineweaver–Burk plots, the mode of inhibition was established, followed by secondary plots (Dixon plots) depending on the established mode of inhibition. The following equation was used to obtain the inhibition constants (Ki) [15]: v=Vmax ×S/Km(1+[I]/Ki)+S(1+[I]/αKi) where S and I are the concentrations of the substrate and inhibitor, respectively; Vmax is the maximum velocity; Km is the Michaelis–Menten constant; Ki is the competitive inhibition constant; and αKi is the uncompetitive inhibition constant.
Lineweaver–Burk plots on monoreplicate tests were performed followed by Dixon secondary plots to determine the inhibition constants. The means of the observed triplicate inhibition constants were subjected to analysis of variance with Tukey HSD/Tukey Kramer post-analysis to compare means. The least significant difference was considered at p < 0.05 and the coefficient of determination (R^2) was obtained as the average of the regression curves from Dixon plots of individual experiments.

α-glycosidase = molecular target: α-glycosidase; design: method as in PMID 32889048; conditions: read-out: IC50 against α-glycosidase; cited from earlier work
[2] = Lineweaver-Burk plot, competitive inhibition

Chain of yeast α-glucosidase (P53341 whole entry): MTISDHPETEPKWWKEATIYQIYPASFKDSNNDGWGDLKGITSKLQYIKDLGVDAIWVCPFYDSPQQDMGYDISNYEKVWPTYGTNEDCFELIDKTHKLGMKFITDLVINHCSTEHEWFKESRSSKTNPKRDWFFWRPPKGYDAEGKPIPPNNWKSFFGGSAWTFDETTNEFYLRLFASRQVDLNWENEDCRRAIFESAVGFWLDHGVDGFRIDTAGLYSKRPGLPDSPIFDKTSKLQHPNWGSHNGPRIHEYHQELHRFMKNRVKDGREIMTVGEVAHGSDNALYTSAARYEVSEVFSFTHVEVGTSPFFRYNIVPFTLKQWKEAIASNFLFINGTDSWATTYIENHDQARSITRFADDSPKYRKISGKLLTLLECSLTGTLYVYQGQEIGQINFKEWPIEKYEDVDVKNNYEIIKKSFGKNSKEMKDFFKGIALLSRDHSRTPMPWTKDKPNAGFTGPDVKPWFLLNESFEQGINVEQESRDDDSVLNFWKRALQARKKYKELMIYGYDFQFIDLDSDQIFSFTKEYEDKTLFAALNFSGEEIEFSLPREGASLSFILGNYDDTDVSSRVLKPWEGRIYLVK

Compound	Inhibition Mode, α-Glucosidase (yeast α-glucosidase)	Inhibition Mode, α-Amylase [1]	IC50 (α-glycosidase)	1/Vmax, α-glucosidase (yeast α-glucosidase; [2])	1/Vmax, α-amylase [1, 2]
6-hydroxy-N-methyldecarine [Compound 8]	Mixed	Mixed	–	–	–
C[C@H]1O[C@H](O[C@H]2[C@H](O)[C@@H](O)[C@@H](O[C@H]3[C@H](O)[C@@H](O)C(O)O[C@@H]3CO)O[C@@H]2CO)[C@H](O)[C@@H](O)[C@@H]1N[C@H]1C=C(CO)[C@@H](O)[C@H](O)[C@H]1O (stereo partly shown) [Acarbose, acarbose, reference compound]	Competitive	Competitive	44.9 µM	–	–
CC(C)CNC(=O)/C=C/C/C=C/c1ccc2c(c1)OCO2 [Compound 1, Chalybemide A]	Non-competitive	Non-competitive	–	–	–
CC(C)(O)CNC(=O)/C=C/c1ccccc1 [Compound 2, chalybemide B]	Uncompetitive	Non-competitive	–	–	–
COc1ccc(CN(C)C(=O)c2ccccc2OC)cc1 [Compound 3, chalybemide C]	Non-competitive	Non-competitive	–	–	–
CC(C)CNC(=O)/C=C/c1ccc2c(c1)OCO2 [Compound 4, fagaramide]	Non-competitive	Non-competitive	–	–	–
COc1ccc2c(OC)c3ccoc3nc2c1OC [Compound 5, skimmianine]	Mixed	Mixed	–	–	–
COc1ccc2c(cnc3c4cc5c(cc4ccc23)OCO5)c1OC [Compound 6, norchelerythrine]	Mixed	Mixed	–	–	–
COc1cc(-c2cc3cc(/C=C/CO)cc(OC)c3o2)ccc1O [Compound 9, ailanthoidol]	Uncompetitive	Uncompetitive	–	–	–
OCC1OC1c1ccc2c(c1)OCO2 (stereo not shown) [Compound 10, 2,3-epoxy-6,7-methylenedioxyconiferol]	Competitive	Competitive	–	20.25 s⁻¹	24.47 s⁻¹
c1cc2c(cc1C1OCC3C(c4ccc5c(c4)OCO5)OCC13)OCO2 (stereo not shown) [Compound 11, sesamine]	non-competitive	Non-competitive	–	–	–
